Experimental data as given in patent US20110144056A1, “PYRAZOLE DERIVATIVES USEFUL AS INHIBITORS OF FAAH” (priority 2008, published 2011).

Each molecule was assayed against T1, FAAH (Homo sapiens, UniProt O00519) (assay: FAAH enzyme assay, lysate of CHO cells expressing human FAAH). Settings: cell lysate, read-out: FAAH Human Cell Lysate IC50.
T1 construct: The full length FAAH was subcloned into the mammalian expression vector, pcDEF.neo; expressed in transfected cells; cDNA from Origene
T1 sequence (O00519 1-579): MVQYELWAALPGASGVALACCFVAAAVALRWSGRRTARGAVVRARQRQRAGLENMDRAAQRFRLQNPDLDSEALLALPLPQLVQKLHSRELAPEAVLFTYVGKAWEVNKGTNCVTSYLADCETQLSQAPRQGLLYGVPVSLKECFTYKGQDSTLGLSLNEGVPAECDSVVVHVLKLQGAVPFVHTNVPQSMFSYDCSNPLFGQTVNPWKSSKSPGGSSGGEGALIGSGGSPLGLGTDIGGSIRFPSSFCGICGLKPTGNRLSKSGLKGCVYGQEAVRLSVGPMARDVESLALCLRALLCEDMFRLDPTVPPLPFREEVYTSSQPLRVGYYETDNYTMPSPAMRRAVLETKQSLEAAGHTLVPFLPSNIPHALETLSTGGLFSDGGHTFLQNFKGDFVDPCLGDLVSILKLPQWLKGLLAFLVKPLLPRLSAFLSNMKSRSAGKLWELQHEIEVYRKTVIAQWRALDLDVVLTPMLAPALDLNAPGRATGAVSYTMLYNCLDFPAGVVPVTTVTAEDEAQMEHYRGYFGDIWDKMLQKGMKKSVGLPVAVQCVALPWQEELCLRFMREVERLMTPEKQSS
Type: biochemical
Text: To assist in assay development stable cell lines for human, murine and rat full length FAAH were developed. Human FAAH cDNA (Accession No: NM_001441.1) was purchased from Origene (Rockville, Md.). The full length FAAH was subcloned into the mammalian expression vector, pcDEF.neo, using XbaI and […] restriction sites and used for stable cell line generation.
CHO cells expressing FAAH were used to prepare either crude cell lysate or microsome fractions. To harvest cells, tissue culture media was decanted, the monolayer washed three times with Ca^++Mg^++ free PBS and cells recovered after 15 min in enzyme free dissociation media (Millipore Corp, Billerica, Mass.). Cells were collected by centrifuging at 2000 rpm for 15 min. and the cell pellet re-suspended with 50 mM HEPES (pH 7.4) containing 1 mM EDTA and the protease inhibitors aprotinin (1 mg/ml) and leupeptin (100 μM). The suspension was sonicated at 4° C. and the cell lysate recovered after centrifuging at 12,000×g (14,600 rpm, SS34 rotor) for 20 min at 4° C. to form a crude pellet of cell debris, nuclei, peroxisomes, lysosomes, and mitochondria; the supernatant or cell lysate was used for FAAH enzyme assay. In some cases, microsomes fractions enriched in FAAH were prepared by centrifuging the cell lysate further at 27,000 rpm (100,000×g) in SW28 rotor for 50 minutes at 4° C. The pellet containing FAAH-enriched microsomes was re-suspend in 50 mM HEPES, (pH 7.4) 1 mM EDTA, and any remaining DNA sheared by passage of material through a 23 gauge needle and aliquots of enzyme were store at −80° C. prior to use.
(American Radiolabeled Chemicals; 1 mCi/ml) with FAAH (Life Sciences (1995), 56, 1999-2005 and Journal of Pharmacology and Experimented Therapeutics (1997), 283, 729-734), Analytical. Biochemistry (2003), 318, 270-5. In addition, routine assays were performed monitoring hydrolysis of arachidonyl-7-amino-4-methylcoumarin amide (AAMCA) by following increase in fluorescence upon release of 7-amino 4-methyl coumarin (λEX=355 nm, (λEM=460 nm). Analytical. Biochemistry (2005). 343, 143-51.
Assays are performed on either cell lysate or microsome fractions prepared as described or in whole cell format employing either the fluorescent substrate AAMCA (Cayman chemical, Ann Arbor, Mich.,) or ^3H-anandmaide ([ETHANOLAMINE-1-3H]American Radiolabeled Chemicals; 1 mCi/ml). The cell lysate or microsome assay is performed in Costar black wall, clear bottom plates by adding FAAH_CHO (whole cell, cell lysate or microsome) in assay buffer (50 mM Phosphate, pH 8.0, 1 mM EDTA, 200 mM KCl, 0.2% glycerol, 0.1% fatty acid free BSA) to each well, followed by either DMSO or compound and allowed to incubate at 22-25° C. for fifteen minutes. AAMCA substrate was used to achieve a final concentration of 1 μM and reaction allowed to proceed at room temperature for 1-3 hours. Fluorescent release as a measure of FAAH activity was monitored by reading the plate in a CytoFluor Multiplate Reader ([…]). Whole cell assay is conducted with cells harvested after rinsing tissue culture flasks three times with Ca^++Mg^++ free PBS, incubating for 10 mm in Enzyme free dissociation media and centrifuging for 5 minutes at 1,000 rpm in table top centrifuge. Cells are resuspended in assay buffer at desired cell number in (4×10^4 cells/assay in 96-well format; 1×10^4 cells/assay in 384-well format) and assayed as described.
Alternatively, assays are performed using anandamide [ethanolamine 1-^3H] (specific activity of 10 Ci/mmol) diluted with cold anandamide to achieve a final assay concentration of 1 μM anandamide (˜50,000 cpm). Enzyme (CHO cell lysate, brain or liver homogenate) is incubated in assay buffer (50 mM Phosphate, pH 8.0, 1 mM EDTA, 200 mM KCl, 0.2% glycerol, 0.1% fatty acid free BSA) with inhibitor at 25° C. for 30 minutes. The reaction was terminated by addition of 2 volumes of chloroform:methanol (1:1) and mixed by vortexing. […]

| IC50 | Molecule |
| --- | --- |
| 15 nM | O=C1CCc2cc(-c3nn(-c4ccccn4)cc3Sc3ccc(Cl)cc3)ccc2N1CCF [Example 346] |
| 12 nM | CCn1cc(-n2cc(Sc3ccc(Cl)cc3)c(-c3ccc4c(=O)[nH]cnc4c3)n2)cn1 [Example 347] |
| 36 nM | CCn1cc(-n2cc(Sc3ccc(Cl)cc3)c(-c3ccc4c(=O)n(-c5cnn(CC)c5)cnc4c3)n2)cn1 [Example 348] |
| 59 nM | CC(C)(O)c1ccc(-c2nn(-c3ccc(F)cn3)cc2Sc2ccc(Cl)cc2)nn1 [Example 349] |
| 103 nM | CC(C)(O)c1ccc(-c2nn(-c3ccc(F)cn3)cc2Sc2ccc(Cl)cn2)nn1 [Example 350] |
| 246 nM | CC(C)(O)c1ccc(-c2nn(-c3cnn(C4CC4)c3)cc2Sc2ccc(Cl)cc2)nn1 [Example 351] |
| 2.2 nM | CCOC(=O)c1ccc2cc(-c3nn(C)cc3Sc3ccc(Cl)cc3)ccc2n1 [Example 352] |
| 0.47 nM | Cn1cc(Sc2ccc(Cl)cc2)c(-c2ccc3nc(C(N)=O)ccc3c2)n1 [Example 353] |
| 0.93 nM | CCOC(=O)c1ccc2cc(-c3n[nH]cc3Sc3ccc(Cl)cc3)ccc2n1 [Example 354] |
| 1.38 nM | CCNC(=O)c1ccc2cc(-c3n[nH]cc3Sc3ccc(Cl)cc3)ccc2n1 [Example 355] |
| 121 nM | CC(C)(O)c1ccc2cc(-c3nn(CCF)cc3Sc3ccc(Cl)cc3)ccc2n1 [Example 357] |
| 423 nM | CC(C)(O)c1ccc2cc(-c3n[nH]cc3Sc3ccc(Cl)cc3)ccc2n1 [Example 358] |
| 101 nM | CC(=O)N1CCc2cc(-c3n[nH]cc3Sc3ccc(Cl)cc3)ccc2C1 [Example 359] |
| 9.8 nM | CC(=O)N1CCc2cc(-c3nn(C4CC4)cc3Sc3ccc(Cl)cc3)ccc2C1 [Example 360] |
| 48 nM | CC(=O)N1CCc2cc(-c3nn(CCF)cc3Sc3ccc(Cl)cc3)ccc2C1 [Example 362] |
| 23 nM | N#Cc1ccc2cc(-c3n[nH]cc3Sc3ccc(Cl)cc3)ccc2n1 [Example 363] |
| 131 nM | Cn1cc(Sc2ccc(Cl)cc2)c(-c2ccc3nc(C#N)ccc3c2)n1 [Example 364] |
| 7.2 nM | CCNC(=O)c1ccc2cc(-c3nn(CCF)cc3Sc3ccc(Cl)cc3)ccc2n1 [Example 366] |
| 20 nM | CCNC(=O)c1ccc2cc(-c3nn(CC(F)F)cc3Sc3ccc(Cl)cc3)ccc2n1 [Example 367] |
| 24 nM | CCNC(=O)c1ccc2cc(-c3nn(C(C)C)cc3Sc3ccc(Cl)cc3)ccc2n1 [Example 368] |
| 1.6 nM | CCNC(=O)c1ccc2cc(-c3nn(CC4CC4)cc3Sc3ccc(Cl)cc3)ccc2n1 [Example 369] |
| 12 nM | CCNC(=O)c1ccc2cc(-c3nn(CC(C)C)cc3Sc3ccc(Cl)cc3)ccc2n1 [Example 370] |
| 4 nM | CCOC(=O)c1cnc2cc(-c3nn(CCF)cc3Sc3ccc(Cl)cc3)ccc2c1 [Example 371] |
| 30 nM | OCc1ccc2cc(-c3nn(CCF)cc3Sc3ccc(Cl)cc3)ccc2n1 [Example 372] |

More lines, now with the values behind:

| Molecule | IC50 |
| --- | --- |
| 6-{4-[(5-chloropyridin-2-yl)sulfanyl]-1-(2-fluoroethyl)-1H-pyrazol-3-yl}-2-(difluoromethyl)quinoline [Example 333] | 79 nM |
| O=C1NCCc2cc(-c3nn(-c4ccc(F)cc4)cc3Sc3ccc(Cl)cc3)ccc21 [Example 308, 6-{4-[(4-chlorophenyl)sulfanyl]-1-(4-fluorophenyl)-1H-pyrazol-3-yl}-3,4-dihydroisoquinolin-1(2H)-one] | 18 nM |
| CCN1CCc2cc(-c3nn(-c4ccc(F)cc4)cc3Sc3ccc(Cl)cc3)ccc2C1=O [Example 309, 6-{4-[(4-chlorophenyl)sulfanyl]-1-(4-fluorophenyl)-1H-pyrazol-3-yl}-2-ethyl-3,4-dihydroisoquinolin-1(2H)-one] | 16 nM |
| O=C1NCCc2cc(-c3n[nH]cc3Sc3ccc(Cl)cc3)ccc21 [Example 310, 6-{4-[(4-chlorophenyl)sulfanyl]-1H-pyrazol-3-yl}-3,4-dihydroisoquinolin-1(2H)-one] | 72 nM |
| O=C1NCCc2cc(-c3nn(CCF)cc3Sc3ccc(Cl)cc3)ccc21 [Example 311] | 91 nM |
| O=c1[nH]cnc2cc(-c3n[nH]cc3Sc3ccc(Cl)cc3)ccc12 [Example 312, 7-{4-[(4-chlorophenyl)sulfanyl]-1H-pyrazol-3-yl}-quinazolin-4(3H)-one] | 228 nM |
| O=c1[nH]cnc2cc(-c3nn(-c4ccc(F)cc4)cc3Sc3ccc(Cl)cc3)ccc12 [Example 313, 7-{4-[(4-chlorophenyl)sulfanyl]-1-(4-fluorophenyl)-1H-pyrazol-3-yl}quinazolin-4(3H)-one] | 8.7 nM |
| O=c1c2ccc(-c3nn(C4CC4)cc3Sc3ccc(Cl)cc3)cc2ncn1C1CC1 [Example 314, 7-{4-[(4-chlorophenyl)sulfanyl]-1-cyclopropyl-1H-pyrazol-3-yl}-3-cyclopropylquinazolin-4(3H)-one] | 202 nM |
| O=c1[nH]cnc2cc(-c3nn(C4CC4)cc3Sc3ccc(Cl)cc3)ccc12 [Example 315, 7-{4-[(4-chlorophenyl)sulfanyl]-1-cyclopropyl-1H-pyrazol-3-yl}quinazolin-4(3H)-one] | 86 nM |
| CN(C)C(=O)c1ccc2cc(-c3n[nH]cc3Sc3ccc(Cl)cn3)ccc2n1 [Example 330, 6-{4-[(5-chloropyridin-2-yl)sulfanyl]-1H-pyrazol-3-yl}-N,N-dimethylquinoline-2-carboxamide] | 5.8 nM |
| CN(C)C(=O)c1ccc2cc(-c3nn(C4CC4)cc3Sc3ccc(Cl)cn3)ccc2n1 [Example 331, 6-{4-[(5-chloropyridin-2-yl)sulfanyl]-1-cyclopropyl-1H-pyrazol-3-yl}-N,N-dimethylquinoline-2-carboxamide] | 77 nM |
| FC(F)c1ccc2cc(-c3n[nH]cc3Sc3ccc(Cl)cn3)ccc2n1 [Example 332] | 268 nM |
| O=C1NCCc2cc(-c3nn(-c4ccccn4)cc3Sc3ccc(Cl)cc3)ccc21 [Example 335] | 8 nM |
| CCN1CCc2cc(-c3nn(-c4ccccn4)cc3Sc3ccc(Cl)cc3)ccc2C1=O [Example 338] | 6 nM |
| O=C1c2ccc(-c3nn(-c4ccccn4)cc3Sc3ccc(Cl)cc3)cc2CCN1CCF [Example 339] | 2.7 nM |
| CCN1CCc2cc(-c3nn(CC)cc3Sc3ccc(Cl)cc3)ccc2C1=O [Example 340] | 25 nM |
| CCn1cc(Sc2ccc(Cl)cc2)c(-c2ccc3c(c2)CCN(CCF)C3=O)n1 [Example 341] | 47 nM |
| CCn1cc(-n2cc(Sc3ccc(Cl)cc3)c(-c3ccc4c(c3)CCNC4=O)n2)cn1 [Example 344] | 16 nM |
| O=C1CCc2cc(-c3nn(-c4ccccn4)cc3Sc3ccc(Cl)cc3)ccc2N1 [Example 345] | 36 nM |
